For one assay, the system named is HT29 cells. Description: Growth inhibition by peptide-cytochrome C conjugates (MTT). The assay is classed as cell-based, human. The procedure:
(§1) H1299 or HT29 cells (3×10^4 cells/well) are cultivated in 96-well plates for 48 hours at 37° C. in the complete culture medium RPMI with decreasing concentrations (200-3 μg/ml) of natural cytochrome C or cytochrome C conjugated with peptides added, and the culture is continued for 48 hours.
(§2) Table 25 gives the inhibition of growth of the cells by the […].

In assay [1] the test system is H1299 cells. The description is as above. The assay is classed as cell-based, human. Here is the method: as §1, §2
Assay [2] concerns H1299 cells. Description: Penetration of peptide-cytochrome C conjugates (microscopy). The assay is classed as cell-based, human. The note with it: 4 hours. Also noted: key: +++: intense; ++: positive; +: slightly positive; −: negative. The procedure:
The penetration of the peptide-cytochrome C conjugates is evaluated with some conjugates prepared with peptides having a biotin on the N-terminal side. H1299 cells are cultivated in the presence of the different (biotinylated) peptide-cytochrome C conjugates at decreasing concentrations (100 to 25 μg/ml) in the culture medium for 4 hours at 37° C. At the end of the culture, the cells are washed three times with PBS, then fixed 15 minutes in ethanol at −20°. The penetration of the peptide-biotin-cytochrome C conjugate is evaluated after incubation for 60 minutes with some avidin coupled with peroxidase. The cells are then washed with PBS, and the activity of the peroxidase is indicated by diaminobenzidine in the presence of H2O2.
The penetration dependent on the concentration of conjugates in the culture medium is evaluated under the microscope by the intensity of the coloration expressed by crosses. Table 24 indicates the penetration of the peptide-cytochrome C conjugates in the cells.

A short description of assay [3]: ELISA fixation of biotinylated peptides on sensitized plates. Particulars: read-out: avidity (Kd), quantity of peptides necessary to obtain 50% fixation, Chondroitin A; Table 5. The assay is classed as binding. In general terms: An ELISA detects its analyte on a solid surface through an enzyme-linked reagent.
Assay [4] relates to Staphylococcus aureus (ATCC 25923). Description: microbe, parasite or virus in culture. The assay is classed as cell-based. The note with it: ATCC 25923. Here is the method:
(§3) The gram-positive bacterial strains are: Enterococcus faecalis (ATCC 29212), and Staphylococcus aureus (ATCC 25923) and the gram-negative strains are: Escherichia coli (ATCC 25922), Pseudomonas aeruginosa (ATCC 27853) and Salmonella typhimurim (clinical isolate), Salmonella typhiTy2 (WHO). The bacteria are cultured with shaking all night at 37° C., then recultured at a dilution of 1:50 in some fresh Luria-Bertani (LB) medium for 2 hours. The bacterial concentration is adjusted to […], and 50 μl is distributed in 96-well plates with an equal volume of peptides diluted half and half (256-0.5 μg/ml) in LB medium. […] To determine the minimum bactericide concentration, 10 μl from each well is spread on gelose plates in LB medium.
(§4) The results are expressed as the peptide concentration in MBC (μM).

Assay [5] deals with Pseudomonas aeruginosa (ATCC 27853). As to the kind of experiment: microbe, parasite or virus in culture. The assay is classed as cell-based. The note with it: ATCC 27853. Here is the method: as §3, §4
The subject of assay [6] is Escherichia coli (ATCC 25922). Description: microbe, parasite or virus in culture. The assay is classed as cell-based. Particulars: ATCC 25922; read-out: MBC. The procedure:
as §3, §4

Assay [7] deals with Enterococcus faecalis (ATCC 29212). Description: microbe, parasite or virus in culture. The assay is classed as cell-based. The note with it: ATCC 29212. Here is the method: as §3, §4
The test system of a further assay is 3T3. Description: Internalization of covalent peptide-peroxidase conjugates. The assay is classed as cell-based, mouse. Particulars: Table 9, 0.2 μg/ml conjugate, 2 hours. Here is the method: (§5) To evaluate more directly the penetration of the peptides, avoiding the avidin-peroxidase bias, some of the peptides in sequences SEQ ID NO: 25 to 48 were conjugated covalently with cysteine in the C-terminal position of the peptide to peroxidase. The peptides were coupled with peroxidase in the following way:
(§6) One mg of peroxidase activated with maleimide (Sigma) in 100 μl of sodium phosphate buffer, NaCl 0.15 M, EDTA 5 mM, had 1 mg of peptide added to it. After 2 hours at laboratory temperature, β-mercaptoethanol is added to a final concentration of 1.5 mM for 15 minutes. The uncoupled peptide is eliminated by centrifugation on ultrafiltration membranes (cut-off threshold=30,000 Daltons, Sartorius), followed by three washings in sodium phosphate buffer 0.1 M, pH 7.4 containing 0.15 M NaCl.
(§7) It appears that the higher the concentration of peptide-peroxidase conjugate in the culture medium, the more the quantity internalized increases. To compare the penetration of the conjugates by cell type, the cells from different lines were incubated with 0.2 μg/ml of peptide-peroxidase conjugate for 2 hours, and the quantity of peroxidase dosed in the lysates. Table 9 and Table 9B below give the results expressed in pg/10^3 cells. The quantity of each peptide internalized in the different lines generally varies only from single to double.

A short description of assay [8]: ELISA fixation of biotinylated peptides on sensitized plates. Particulars: read-out: avidity (Kd), quantity of peptides necessary to obtain 50% fixation, Chondroitin B; Table 5. The assay is classed as binding.
In assay [9] the test system is H1299 cells. As to the kind of experiment: Internalization of biotinylated peptide/S-PO complexes. The assay is classed as cell-based, human. Particulars: peptide: S-PO complexes of 4:1, peptide concentration of 1 μg. The method, boiled down:
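Biotinylated peptides precomplexed 15 min with streptavidin- or avidin-peroxidase at 25:1 or 4:1 peptide:conjugate molar ratio in PBS, diluted in complete medium and incubated with H1299 cells for 4 h. After washing and lysis, internalised peroxidase quantified with ortho-dianisidine/H2O2 at 450 nm against an S-PO standard curve, as pg per 10^4 cells.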

Assay [10] in a line: ELISA fixation of biotinylated peptides on sensitized plates. Particulars: read-out: avidity (Kd), quantity of peptides necessary to obtain 50% fixation, Chondroitin C; Table 5. The assay is classed as binding.
For the next assay, the system named is HeLa. As to the kind of experiment: Internalization of covalent peptide-peroxidase conjugates. The assay is classed as cell-based, human. The note with it: Table 9, 0.2 μg/ml conjugate, 2 hours. The procedure: as §5, §6, §7
The test system of assay [11] is gram-positive and gram-negative bacterial strains. As to the kind of experiment: Antibacterial activity of cationic peptides, summary over strains. Particulars: summary of Table 29. The assay is classed as cell-based. Here is the method: as §3
However, when peptide HPB13 (SEQ ID NO: 38) is coupled with peptide SEQ ID NO: 24, it enhances its activity by a factor of 50 to 100 (peptide SEQ ID NO: 45). […] None these peptides are active on gram-positive bacteria.

Assay [12] deals with Salmonella typhiTy2 (WHO). As to the kind of experiment: microbe, parasite or virus in culture. The assay is classed as cell-based, S. typhi-Ty2. The note with it: S. typhi-Ty2. Here is the method: as §3, §4
The subject of assay [13] is H1299 cells. As to the kind of experiment: Internalization of covalent peptide-peroxidase conjugates. The note with it: Table 9; H1299; 0.2 μg/ml conjugate, 2 hours. The assay is classed as cell-based, human. Here is the method:
as §5, §6
The H1299 cells are incubated for 2 hours with the conjugates at increasing concentrations of peptide-peroxidase in the culture medium, then washed with PBS. The cells are lysed and the quantity of peptide internalized is evaluated by the dosage of peroxidase in the lysate of the cells with reference to a curve established with peptide-peroxidase.
The quantity of peptide internalized (pg/10^3 cells), depending on the concentrations of conjugates in the culture medium, is shown in Table 8 below.
as §7

Assay [14] can be described thus: ELISA fixation of biotinylated peptides on sensitized plates. The assay is classed as binding. Particulars: read-out: avidity (Kd), quantity of peptides necessary to obtain 50% fixation, Heparin; Table 5. Here is the method: The capacity of peptides SEQ ID NO: 1 to 21 to attach themselves to DNA and heparin is evaluated on ELISA plates sensitized with DNA or heparin. Dilutions of biotinylated peptides are deposited on the plates and their fixation is shown using streptavidin conjugated with peroxidase. […] The avidity of each of the peptides for DNA or heparin is evaluated by the quantity (×10^−6 M) of peptides necessary to obtain 50% fixation.

The subject of the next assay is HeLa cells. Description: Penetration of peroxidase transported by peptide-IgG anti-PO transporter. The assay is classed as cell-based, human. The note with it: via the transporter [peptide-IgG anti-PO]. Here is the method: Two mg of specific monoclonal IgG antibody of peroxidase or their fragment F(ab′)2 in 1 ml of potassium phosphate buffer 0.1 M, pH 7.4 are added to 110 μg of SMCC [succinimidyl 4-(N-maleimidomethyl)cyclohexane-1-carboxylate] in 11 μl of dimethylsulfoxide. The solution is incubated for 45 minutes at laboratory temperature. The excess reagent is eliminated by centrifugation on ultrafiltration membranes (cutoff threshold =10,000 Da, Vivascience), followed by three washings in sodium phosphate buffer 10 mM, pH 7 containing 0.5 M of NaCl and 5 mM of EDTA.
The peptide is then coupled in a molar ratio of 6 peptides to 1 IgG or 1 F(ab′)2 in the sodium phosphate buffer 10 mM, pH 7, containing 0.5 M of NaCl and 5 mM of EDTA for three hours at laboratory temperature. Then, the excess uncoupled peptide is totally eliminated by centrifugation on ultrafiltration membranes, as in the preceding step. These transporters [peptide-IgG anti-PO] are added to the peroxidase or the biotinylated peroxidase in some 0.5 M NaCl buffer. The solution is incubated for 1 hour at laboratory temperature. The molar ratio of this reaction is 2 PO/1 IgG or F(ab′)2. […]
To measure the quantity of PO internalized, the cells are trypsinized, transferred into microtubes and counted. […]

Data on four molecules can be found in patent US8003595B2, “Amino acid sequences facilitating penetration of a substance of interest into cells and/or cell nuclei” (Cellectis, priority 2000, dated 2011).

Read-outs that look alike come from different tables or passages of the source. Marks after values point to notes of the source that are not given here. Where no end group is shown, it is not given here. Bounds are passed on as bounds.

As a reminder, the % inhibition of growth is the change of the read-out against control, counted positive when it falls.

Turning to “Natural cytochrome C: hemoprotein, single polypeptide chain of 104 amino acids”, the “% inhibition of growth” value in the assay on HT29 cells (12.5 μg/ml) is on record as 0%; in the assay on HT29 cells (25 μg/ml) it was 0%; in the assay on HT29 cells (50 μg/ml) it was 10%; with HT29 cells (100 μg/ml), 19%; with HT29 cells (200 μg/ml), 12* %; in the assay on H1299 cells [1] (3 μg/ml) it was 0%. The “% inhibition of growth” value with H1299 cells [1] (6 μg/ml) is 0%; in the assay on H1299 cells [1] (12.5 μg/ml) it was 0%; in the assay with H1299 cells [1] (25 μg/ml) it was 0%; in the assay with H1299 cells [1] (50 μg/ml), 0%; with H1299 cells [1] (100 μg/ml), 0* %. Besides, the “penetration, intensity of the coloration” value with H1299 cells [2] (25 μg/ml) is recorded as “−”; in the assay on H1299 cells [2] (50 μg/ml) it was “−”; in the assay on H1299 cells [2] (100 μg/ml) it was “−*”.

In the case of VKRGLKLVKRGLKLVKRGLKL [SEQ ID NO: 3], the Kd stood at 37 nM in [3], 41 nM in [8], 35 nM in [10] and 41 nM in assay [14]. Moreover, the MBC is greater than 106 µM in [4]; 26.5 µM in assay [5]; 13.25 µM in [6]; greater than 106 µM in assay [7]; 1.65 µM in assay [12]. In addition, the “Internalization of Peptide-peroxidase” value in the assay with 3T3 is 24.6 pg/10^3 cells; in the assay on HeLa it was 11.2 pg/10^3 cells; in the assay on H1299 cells [13], 17.7 pg/10^3 cells. Further, the S-PO internalized with H1299 cells [9] was found to be 642 pg/10^4 cells. In assay [11], the “bactericide / anti-microbial activity” value was “has bactericide activity”.

B1: Peroxidase (PO): peroxidase transported by the transporter [peptide-IgG anti-PO] (protein)
chain: QLTPTFYDNSCPNVSNIVRDTIVNELRSDPRIAASILRLHFHDCFVNGCDASILLDNTTSFRTEKDAFGNANSARGFPVIDRMKAAVESACPRTVSCADLLTIAAQQSVTLAGGPSWRVPLGRRDSLQAFLDLANANLPAPFFTLPQLKDSFRNVGLNRSSDLVALSGGHTFGKNQCRFIMDRLYNFSNTGLPDPTLNTTYLQTLRGLCPLNGNLSALVDFDLRTPTIFDNKYYVNLEEQKGLIQSDQELFSSPNATDTIPLVRSFANSTQTFFNAFVEAMDRMGNITPLTGTQGQIRLNCRVVNSNS
With B1, the “Quantity of molecules internalized” value in the assay on HeLa cells was 2100 pg/10^4 cells.

B2: Biotinylated PO: biotinylated peroxidase transported by the transporter [peptide-IgG anti-PO] (protein)
chain: QLTPTFYDNSCPNVSNIVRDTIVNELRSDPRIAASILRLHFHDCFVNGCDASILLDNTTSFRTEKDAFGNANSARGFPVIDRMKAAVESACPRTVSCADLLTIAAQQSVTLAGGPSWRVPLGRRDSLQAFLDLANANLPAPFFTLPQLKDSFRNVGLNRSSDLVALSGGHTFGKNQCRFIMDRLYNFSNTGLPDPTLNTTYLQTLRGLCPLNGNLSALVDFDLRTPTIFDNKYYVNLEEQKGLIQSDQELFSSPNATDTIPLVRSFANSTQTFFNAFVEAMDRMGNITPLTGTQGQIRLNCRVVNSNS
Turning to B2, the “Quantity of molecules internalized” value in the assay with HeLa cells amounted to 1700 pg/10^4 cells.
